Experimental data from BindingDB's records for doi:10.1021/jm00147a007 (1985).

Target: Aminopeptidase N (Oryctolagus cuniculus) (UniProt P15541)
Experiment: Inhibitory activity against rabbit kidney aminopeptidase using 10 nM of [3H]Leu-enkephalin as substrate

Chain of Aminopeptidase N (Oryctolagus cuniculus) (P15541 whole entry, looked up): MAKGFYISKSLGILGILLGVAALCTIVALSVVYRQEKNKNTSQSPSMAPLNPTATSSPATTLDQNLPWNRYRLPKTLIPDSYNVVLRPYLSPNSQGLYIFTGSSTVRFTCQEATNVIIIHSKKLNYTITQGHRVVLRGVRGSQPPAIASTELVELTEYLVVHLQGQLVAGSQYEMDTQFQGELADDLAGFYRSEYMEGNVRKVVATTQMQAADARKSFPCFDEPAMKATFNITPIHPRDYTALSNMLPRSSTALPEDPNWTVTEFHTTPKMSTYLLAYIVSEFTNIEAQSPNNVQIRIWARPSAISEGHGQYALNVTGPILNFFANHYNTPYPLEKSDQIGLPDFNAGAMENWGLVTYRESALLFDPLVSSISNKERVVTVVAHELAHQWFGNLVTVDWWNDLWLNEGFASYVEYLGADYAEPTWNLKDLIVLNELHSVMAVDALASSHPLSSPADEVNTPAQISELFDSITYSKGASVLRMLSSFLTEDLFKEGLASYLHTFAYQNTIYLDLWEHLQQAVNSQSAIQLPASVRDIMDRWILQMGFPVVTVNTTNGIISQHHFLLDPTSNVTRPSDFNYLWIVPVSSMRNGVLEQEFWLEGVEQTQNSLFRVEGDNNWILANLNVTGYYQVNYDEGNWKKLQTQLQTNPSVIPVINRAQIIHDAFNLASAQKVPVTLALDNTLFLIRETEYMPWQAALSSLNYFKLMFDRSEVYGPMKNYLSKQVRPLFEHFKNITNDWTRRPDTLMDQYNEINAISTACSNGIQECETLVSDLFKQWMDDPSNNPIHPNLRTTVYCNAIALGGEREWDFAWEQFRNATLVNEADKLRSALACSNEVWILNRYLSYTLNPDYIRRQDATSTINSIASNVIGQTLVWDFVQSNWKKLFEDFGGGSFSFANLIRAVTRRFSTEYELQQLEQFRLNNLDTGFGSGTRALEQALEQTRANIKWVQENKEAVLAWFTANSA

| IC50 [µM] | Structure (SMILES) |
| --- | --- |
| 100 | O=C(O)CNC(=O)C(Cc1ccccc1)C(=O)NO (racemic) |
| 0.71 | C[C@H](NC(=O)[C@@H](CC(=O)NO)Cc1ccccc1)C(=O)O (racemic) [(RS)-2-(2-Benzyl-3-hydroxycarbamoyl-propionylamino)-propionic acid] |
| 25 | O=CN(O)C(Cc1ccccc1)C(=O)NCC(=O)O (centres undefined) [[2-(Formyl-hydroxy-amino)-3-phenyl-propionylamino]-acetic acid] |
| 0.85 | O=CN(O)CC(Cc1ccccc1)C(=O)NCC(=O)O (centres undefined) [[2-Benzyl-3-(formyl-hydroxy-amino)-propionylamino]-acetic acid] |
